{"source": "patent US12077503B2", "about": "“Substituted cyclic amides and their use as herbicides” (FMC CORPORATION, priority 2015, dated 2024)", "assay_type_in_all_cases": "in vivo", "key": {"[1]": {"system": "ragweed (common ragweed, Ambrosia elatior)", "experiment": "Test A preemergence", "conditions": "Ambrosia artemisiifolia, pre-emergence, 240 h, 0 to 100 scale where 0 is no effect and 100 is complete control, read-out: Ragweed plant response rating", "procedure,_shortened": "(§1)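 Seeds sprayed preemergence with a directed soil spray, or plants at 2 to 10 cm height and one- to two-leaf stage sprayed postemergence, with test chemicals in a non-phytotoxic solvent mixture containing surfactant, in loam soil–sand blend. Injury rated visually against untreated controls after about 10 d in greenhouse, 0 (no effect) to 100 (complete control).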"}, "[2]": {"system": "ryegrass, Italian (Italian ryegrass, Lolium multiflorum)", "experiment": "Test A preemergence", "conditions": "Lolium multiflorum, pre-emergence, 240 h, 0 to 100 scale where 0 is no effect and 100 is complete control, read-out: Ryegrass, Italian plant response rating", "procedure,_shortened": "as §1"}, "[3]": {"system": "giant foxtail (Setaria faberii)", "experiment": "Test A preemergence", "conditions": "Setaria faberi, pre-emergence, 240 h, 0 to 100 scale where 0 is no effect and 100 is complete control, read-out: Foxtail, Giant plant response rating", "procedure,_shortened": "as §1"}, "[4]": {"system": "barnyardgrass (Echinochloa crus-galli)", "experiment": "Test A preemergence", "conditions": "Echinochloa crus-galli, pre-emergence, 240 h, 0 to 100 scale where 0 is no effect and 100 is complete control, read-out: Barnyardgrass plant response rating", "procedure,_shortened": "as §1"}, "[5]": {"system": "pigweed (Amaranthus retroflexus)", "experiment": "Test A preemergence", "conditions": "Amaranthus retroflexus, pre-emergence, 240 h, 0 to 100 scale where 0 is no effect and 100 is complete control, read-out: Pigweed plant response rating"}, "Kochia (Kochia scoparia) [6]": {"system": "Kochia (Kochia scoparia)", "experiment": "Test A preemergence", "conditions": "Bassia scoparia, pre-emergence, 240 h, 0 to 100 scale where 0 is no effect and 100 is complete control, read-out: Kochia plant response rating", "procedure,_shortened": "as §1"}, "[7]": {"system": "wheat (Triticum aestivum)", "experiment": "Test A postemergence", "conditions": "Triticum aestivum, post-emergence, 240 h, Postemergence, 31 g ai/ha; 0 is no effect, 100 is complete control; read-out: Wheat plant response rating (0 to 100 scale)", "procedure,_shortened": "as §1"}, "corn (Zea mays)": {"system": "corn (Zea mays)", "experiment": "Test A postemergence", "conditions": "Zea mays, post-emergence, 240 h, read-out: Corn plant response rating (0 to 100 scale)", "procedure,_shortened": "as §1"}, "[8]": {"system": "ragweed (common ragweed, Ambrosia elatior)", "experiment": "Test A postemergence", "conditions": "Ambrosia artemisiifolia, post-emergence, 240 h, read-out: Ragweed plant response rating (0 to 100 scale)", "procedure,_shortened": "as §1"}, "[9]": {"system": "ryegrass, Italian (Italian ryegrass, Lolium multiflorum)", "experiment": "Test A postemergence", "conditions": "Lolium multiflorum, post-emergence, 240 h, read-out: Ryegrass, Italian plant response rating (0 to 100 scale)", "procedure,_shortened": "as §1"}, "[10]": {"system": "Galium (catchweed bedstraw, Galium aparine)", "experiment": "Test A postemergence", "conditions": "Galium, post-emergence, 240 h, read-out: Galium plant response rating (0 to 100 scale)", "procedure,_shortened": "as §1"}, "[11]": {"system": "giant foxtail (Setaria faberii)", "experiment": "Test A postemergence", "conditions": "Setaria faberi, post-emergence, 240 h, read-out: Foxtail, Giant plant response rating (0 to 100 scale)", "procedure,_shortened": "as §1"}, "[12]": {"system": "blackgrass (Alopecurus myosuroides)", "experiment": "Test A postemergence", "conditions": "Alopecurus myosuroides, post-emergence, 240 h, read-out: Blackgrass plant response rating (0 to 100 scale)", "procedure,_shortened": "as §1"}, "[13]": {"system": "barnyardgrass (Echinochloa crus-galli)", "experiment": "Test A postemergence", "conditions": "Echinochloa crus-galli, post-emergence, 240 h, read-out: Barnyardgrass plant response rating (0 to 100 scale)", "procedure,_shortened": "as §1"}, "[14]": {"system": "pigweed (Amaranthus retroflexus)", "experiment": "Test A postemergence", "conditions": "Amaranthus retroflexus, post-emergence, 240 h, read-out: Pigweed plant response rating (0 to 100 scale)", "procedure,_shortened": "as §1"}, "Kochia (Kochia scoparia) [15]": {"system": "Kochia (Kochia scoparia)", "experiment": "Test A postemergence", "conditions": "Bassia scoparia, post-emergence, 240 h, read-out: Kochia plant response rating (0 to 100 scale)", "procedure,_shortened": "as §1"}, "[16]": {"system": "sedge, umbrella (small-flower umbrella sedge, Cyperus difformis)", "experiment": "Test B flooded paddy test", "conditions": "Cyperus difformis, 250 g ai/ha, Flood; 0 to 100 scale where 0 is no effect and 100 is complete control; read-out: Sedge, Umbrella plant response rating", "procedure,_shortened": "(§2)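 Greenhouse paddy pots with 2-leaf stage plants received compound by direct addition to floodwater 3 cm deep, kept at that level. Scored visually at 13–15 d versus controls (0 no effect; 100 complete control).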"}, "rice (Oryra sativa)": {"system": "rice (Oryra sativa)", "experiment": "Test B flooded paddy test", "conditions": "Oryza sativa, 250 g ai/ha, Flood; 0 to 100 scale where 0 is no effect and 100 is complete control; read-out: Rice plant response rating", "procedure,_shortened": "as §2"}, "[17]": {"system": "ducksalad (Heteranthera limosa)", "experiment": "Test B flooded paddy test", "conditions": "Heteranthera limosa, 250 g ai/ha, Flood; 0 to 100 scale where 0 is no effect and 100 is complete control; read-out: Ducksalad plant response rating", "procedure,_shortened": "as §2"}, "[18]": {"system": "barnyardgrass (Echinochloa crus-galli)", "experiment": "Test B flooded paddy test", "conditions": "Echinochloa crus-galli, 250 g ai/ha, Flood; 0 to 100 scale where 0 is no effect and 100 is complete control; read-out: Barnyardgrass plant response rating", "procedure,_shortened": "as §2"}, "[19]": {"conditions": "125 g ai/ha, preemergence, visual injury rating, approximately 10 d"}, "[20]": {"conditions": "125 g ai/ha, postemergence, visual injury vs untreated controls after approx. 10 d, 0 = no effect, 100 = complete control"}, "[21]": {"conditions": "Postemergence, 31 g ai/ha, 0 is no effect, 100 is complete control"}}}
{"smiles": "O=C1NC[C@H](c2ccc(Cl)c(F)c2)[C@H]1C(=O)Nc1cccc(F)c1F", "note": "[Compound 1262]", "values": [{"measurement": "pest or weed control at 31 g/ha", "setting": "[1]; 31 g ai/ha, Preemergence", "result": 0, "unit": "%"}, {"measurement": "pest or weed control at 125 g/ha", "setting": "[1]; [19]", "result": 0, "unit": "%"}, {"measurement": "pest or weed control at 31 g/ha", "setting": "[2]; 31 g ai/ha, Preemergence", "result": 0, "unit": "%"}, {"measurement": "pest or weed control at 125 g/ha", "setting": "[2]; [19]", "result": 0, "unit": "%"}, {"measurement": "pest or weed control at 31 g/ha", "setting": "[3]; 31 g ai/ha, Preemergence", "result": 90, "unit": "%"}, {"measurement": "pest or weed control at 125 g/ha", "setting": "[3]; [19]", "result": 90, "unit": "%"}, {"measurement": "pest or weed control at 31 g/ha", "setting": "[4]; 31 g ai/ha, Preemergence", "result": 70, "unit": "%"}, {"measurement": "pest or weed control at 125 g/ha", "setting": "[4]; [19]", "result": 90, "unit": "%"}, {"measurement": "pest or weed control at 31 g/ha", "setting": "[5]; 31 g ai/ha, Preemergence", "result": 0, "unit": "%"}, {"measurement": "pest or weed control at 125 g/ha", "setting": "[5]; [19]", "result": 50, "unit": "%"}, {"measurement": "pest or weed control at 31 g/ha", "setting": "Kochia (Kochia scoparia) [6]; 31 g ai/ha, Preemergence", "result": 20, "unit": "%"}, {"measurement": "pest or weed control at 125 g/ha", "setting": "Kochia (Kochia scoparia) [6]; [19]", "result": 60, "unit": "%"}, {"measurement": "plant injury at 31 g/ha", "setting": "[7]", "result": 0, "unit": "%"}, {"measurement": "plant injury at 125 g/ha", "setting": "corn (Zea mays); [20]", "result": 60, "unit": "%"}, {"measurement": "plant injury at 31 g/ha", "setting": "corn (Zea mays); [21]", "result": 20, "unit": "%"}, {"measurement": "pest or weed control at 125 g/ha", "setting": "[8]; [20]", "result": 30, "unit": "%"}, {"measurement": "pest or weed control at 31 g/ha", "setting": "[8]; [21]", "result": 0, "unit": "%"}, {"measurement": "pest or weed control at 125 g/ha", "setting": "[9]; [20]", "result": 20, "unit": "%"}, {"measurement": "pest or weed control at 31 g/ha", "setting": "[9]; [21]", "result": 0, "unit": "%"}, {"measurement": "pest or weed control at 125 g/ha", "setting": "[10]; [20]", "result": 70, "unit": "%"}, {"measurement": "pest or weed control at 31 g/ha", "setting": "[10]; [21]", "result": 30, "unit": "%"}, {"measurement": "pest or weed control at 125 g/ha", "setting": "[11]; [20]", "result": 80, "unit": "%"}, {"measurement": "pest or weed control at 31 g/ha", "setting": "[11]; [21]", "result": 70, "unit": "%"}, {"measurement": "pest or weed control at 125 g/ha", "setting": "[12]; [20]", "result": 50, "unit": "%"}, {"measurement": "pest or weed control at 31 g/ha", "setting": "[12]; [21]", "result": 0, "unit": "%"}, {"measurement": "pest or weed control at 125 g/ha", "setting": "[13]; [20]", "result": 90, "unit": "%"}, {"measurement": "pest or weed control at 31 g/ha", "setting": "[13]; [21]", "result": 70, "unit": "%"}, {"measurement": "pest or weed control at 125 g/ha", "setting": "[14]; [20]", "result": 70, "unit": "%"}, {"measurement": "pest or weed control at 31 g/ha", "setting": "[14]; [21]", "result": 30, "unit": "%"}, {"measurement": "pest or weed control at 125 g/ha", "setting": "Kochia (Kochia scoparia) [15]; [20]", "result": 50, "unit": "%"}, {"measurement": "pest or weed control at 31 g/ha", "setting": "Kochia (Kochia scoparia) [15]; [21]", "result": 20, "unit": "%"}, {"measurement": "pest or weed control at 250 g/ha", "setting": "[16]", "result": 0, "unit": "%"}, {"measurement": "pest or weed control at 250 g/ha", "setting": "rice (Oryra sativa)", "result": 10, "unit": "%"}, {"measurement": "pest or weed control at 250 g/ha", "setting": "[17]", "result": 100, "unit": "%"}, {"measurement": "pest or weed control at 250 g/ha", "setting": "[18]", "result": 65, "unit": "%"}]}
